From PubChem BioAssay (NCI)
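Exposure lasted 48 hours, with cells grown in 96-well plates and compounds tested at five concentrations. Definition used: TGI = concentration required for complete inhibition of growth.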

Columns and labels:
Experiment in all cases: NCI anticancer screen, dose series, 48 h
786-0 renal = tested on: 786-0 renal
A549 NSCLC = tested on: A549 NSCLC
ACHN renal = tested on: ACHN renal
BT-549 breast = tested on: BT-549 breast
CAKI-1 renal = tested on: CAKI-1 renal
CCRF-CEM leukemia = tested on: CCRF-CEM leukemia
COLO 205 colon = tested on: COLO 205 colon
DU-145 prostate = tested on: DU-145 prostate
EKVX NSCLC = tested on: EKVX NSCLC
HCC-2998 colon = tested on: HCC-2998 colon
HCT-116 colon = tested on: HCT-116 colon
HCT-15 colon = tested on: HCT-15 colon
HL-60(TB) leukemia = tested on: HL-60(TB) leukemia
HOP-62 NSCLC = tested on: HOP-62 NSCLC
HOP-92 NSCLC = tested on: HOP-92 NSCLC
HT29 colon = tested on: HT29 colon
IGROV1 ovarian = tested on: IGROV1 ovarian
K-562 leukemia = tested on: K-562 leukemia
KM12 colon = tested on: KM12 colon
LOX IMVI melanoma = tested on: LOX IMVI melanoma
M14 melanoma = tested on: M14 melanoma
MALME-3M melanoma = tested on: MALME-3M melanoma
MCF7 breast = tested on: MCF7 breast
MDA-MB-231 breast = tested on: MDA-MB-231 breast
MDA-MB-435 = tested on: MDA-MB-435
MDA-N = tested on: MDA-N
MOLT-4 leukemia = tested on: MOLT-4 leukemia
NCI-H226 lung = tested on: NCI-H226 lung
NCI-H23 lung = tested on: NCI-H23 lung
NCI-H460 lung = tested on: NCI-H460 lung
NCI/ADR-RES ovarian = tested on: NCI/ADR-RES ovarian
OVCAR-3 ovarian = tested on: OVCAR-3 ovarian
OVCAR-4 ovarian = tested on: OVCAR-4 ovarian
OVCAR-5 ovarian = tested on: OVCAR-5 ovarian
OVCAR-8 ovarian = tested on: OVCAR-8 ovarian
PC-3 prostate = tested on: PC-3 prostate
RPMI-8226 leukemia = tested on: RPMI-8226 leukemia
RXF 393 renal = tested on: RXF 393 renal
SF-268 CNS = tested on: SF-268 CNS
SF-295 CNS = tested on: SF-295 CNS
SK-MEL-2 melanoma = tested on: SK-MEL-2 melanoma
SK-MEL-5 melanoma = tested on: SK-MEL-5 melanoma
SK-OV-3 ovarian = tested on: SK-OV-3 ovarian
SN12C renal = tested on: SN12C renal
SNB-19 CNS = tested on: SNB-19 CNS
SNB-75 CNS = tested on: SNB-75 CNS
SR leukemia = tested on: SR leukemia
SW-620 colon = tested on: SW-620 colon
T-47D breast = tested on: T-47D breast
TK-10 renal = tested on: TK-10 renal
U251 CNS = tested on: U251 CNS
UACC-257 melanoma = tested on: UACC-257 melanoma
UACC-62 melanoma = tested on: UACC-62 melanoma
UO-31 renal = tested on: UO-31 renal
HS 578T breast = tested on: HS 578T breast
NCI-H522 lung = tested on: NCI-H522 lung
SF-539 CNS = tested on: SF-539 CNS
SK-MEL-28 melanoma = tested on: SK-MEL-28 melanoma

What does the source list for `O=c1[nH]ncc2[nH]c(-c3ccccc3)cc12`?
TGI (786-0 renal): > 100 µM; TGI (A549 NSCLC): > 100 µM; TGI (ACHN renal): > 100 µM; TGI (BT-549 breast): > 100 µM; TGI (CAKI-1 renal): > 100 µM; TGI (CCRF-CEM leukemia): > 100 µM; TGI (COLO 205 colon): > 100 µM; TGI (DU-145 prostate): > 100 µM; TGI (EKVX NSCLC): > 100 µM; TGI (HCC-2998 colon): > 100 µM; TGI (HCT-116 colon): > 100 µM; TGI (HCT-15 colon): > 100 µM; TGI (HL-60(TB) leukemia): > 100 µM; TGI (HOP-62 NSCLC): > 100 µM; TGI (HOP-92 NSCLC): > 100 µM; TGI (HT29 colon): > 100 µM; TGI (IGROV1 ovarian): > 100 µM; TGI (K-562 leukemia): > 100 µM; TGI (KM12 colon): > 100 µM; TGI (LOX IMVI melanoma): > 100 µM; TGI (M14 melanoma): > 100 µM; TGI (MALME-3M melanoma): > 100 µM; TGI (MCF7 breast): > 100 µM; TGI (MDA-MB-231 breast): > 100 µM; TGI (MDA-MB-435): > 100 µM; TGI (MDA-N): > 100 µM; TGI (MOLT-4 leukemia): > 100 µM; TGI (NCI-H226 lung): > 100 µM; TGI (NCI-H23 lung): > 100 µM; TGI (NCI-H460 lung): > 100 µM; TGI (NCI/ADR-RES ovarian): 69 µM; TGI (OVCAR-3 ovarian): > 100 µM; TGI (OVCAR-4 ovarian): > 100 µM; TGI (OVCAR-5 ovarian): > 100 µM; TGI (OVCAR-8 ovarian): > 100 µM; TGI (PC-3 prostate): 95.1 µM; TGI (RPMI-8226 leukemia): > 100 µM; TGI (RXF 393 renal): 96.5 µM; TGI (SF-268 CNS): > 100 µM; TGI (SF-295 CNS): > 100 µM; TGI (SK-MEL-2 melanoma): 71 µM; TGI (SK-MEL-5 melanoma): 60.5 µM; TGI (SK-OV-3 ovarian): > 100 µM; TGI (SN12C renal): > 100 µM; TGI (SNB-19 CNS): > 100 µM; TGI (SNB-75 CNS): 77 µM; TGI (SR leukemia): > 100 µM; TGI (SW-620 colon): > 100 µM; TGI (T-47D breast): > 100 µM; TGI (TK-10 renal): > 100 µM; TGI (U251 CNS): > 100 µM; TGI (UACC-257 melanoma): > 100 µM; TGI (UACC-62 melanoma): > 100 µM; TGI (UO-31 renal): > 100 µM

Which results are given for `CC(Cc1ccc(O)cn1)(NC(=O)c1ccccc1)C(=O)O` (centres undefined)?
TGI (786-0 renal): > 100 µM; TGI (A549 NSCLC): > 100 µM; TGI (ACHN renal): > 100 µM; TGI (BT-549 breast): > 100 µM; TGI (CAKI-1 renal): > 100 µM; TGI (CCRF-CEM leukemia): > 100 µM; TGI (COLO 205 colon): > 100 µM; TGI (DU-145 prostate): > 100 µM; TGI (EKVX NSCLC): > 100 µM; TGI (HCC-2998 colon): > 100 µM; TGI (HCT-116 colon): > 100 µM; TGI (HCT-15 colon): > 100 µM; TGI (HL-60(TB) leukemia): > 100 µM; TGI (HOP-62 NSCLC): > 100 µM; TGI (HOP-92 NSCLC): > 100 µM; TGI (HS 578T breast): > 100 µM; TGI (HT29 colon): > 100 µM; TGI (IGROV1 ovarian): > 100 µM; TGI (K-562 leukemia): > 100 µM; TGI (KM12 colon): > 100 µM; TGI (LOX IMVI melanoma): > 100 µM; TGI (M14 melanoma): > 100 µM; TGI (MALME-3M melanoma): > 100 µM; TGI (MDA-MB-231 breast): > 100 µM; TGI (MDA-MB-435): > 100 µM; TGI (MDA-N): > 100 µM; TGI (MOLT-4 leukemia): > 100 µM; TGI (NCI-H226 lung): > 100 µM; TGI (NCI-H23 lung): > 100 µM; TGI (NCI-H460 lung): > 100 µM; TGI (NCI-H522 lung): > 100 µM; TGI (NCI/ADR-RES ovarian): > 100 µM; TGI (OVCAR-3 ovarian): > 100 µM; TGI (OVCAR-4 ovarian): > 100 µM; TGI (OVCAR-5 ovarian): > 100 µM; TGI (OVCAR-8 ovarian): > 100 µM; TGI (PC-3 prostate): > 100 µM; TGI (RPMI-8226 leukemia): > 100 µM; TGI (RXF 393 renal): > 100 µM; TGI (SF-268 CNS): > 100 µM; TGI (SF-295 CNS): > 100 µM; TGI (SF-539 CNS): > 100 µM; TGI (SK-MEL-2 melanoma): > 100 µM; TGI (SK-MEL-28 melanoma): > 100 µM; TGI (SK-MEL-5 melanoma): > 100 µM; TGI (SK-OV-3 ovarian): > 100 µM; TGI (SNB-19 CNS): > 100 µM; TGI (SNB-75 CNS): > 100 µM; TGI (SR leukemia): > 100 µM; TGI (SW-620 colon): > 100 µM; TGI (TK-10 renal): > 100 µM; TGI (U251 CNS): > 100 µM; TGI (UACC-257 melanoma): > 100 µM; TGI (UACC-62 melanoma): > 100 µM; TGI (UO-31 renal): > 100 µM
